Among the data in US10927123B2, “Modulators of the beta-3 adrenergic receptor useful for the treatment or prevention of disorders related thereto” (Arena Pharmaceuticals, Inc., priority 2016, dated 2021) are IC50 values, retold here.

Structures are written as SMILES.

Beta-3 Adrenergic Receptor, sequence (P13945 whole entry, species assumed): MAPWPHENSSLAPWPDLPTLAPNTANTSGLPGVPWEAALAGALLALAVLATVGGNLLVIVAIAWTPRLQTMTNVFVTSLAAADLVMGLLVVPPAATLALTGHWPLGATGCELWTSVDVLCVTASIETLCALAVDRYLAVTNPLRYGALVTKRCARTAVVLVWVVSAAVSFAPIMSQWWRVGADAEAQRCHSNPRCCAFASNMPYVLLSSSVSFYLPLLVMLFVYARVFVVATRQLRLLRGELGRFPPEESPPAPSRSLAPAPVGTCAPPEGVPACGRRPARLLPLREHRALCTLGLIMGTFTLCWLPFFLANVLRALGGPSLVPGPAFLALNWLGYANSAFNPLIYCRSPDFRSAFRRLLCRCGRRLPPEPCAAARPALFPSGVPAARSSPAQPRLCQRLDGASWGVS

This assay deals with Beta-3 Adrenergic Receptor (Homo sapiens (Human), UniProt P13945). The assay is described as follows: HTRF cAMP antagonist assay (IC50 determination). The class given is cell-based. The conditions noted are these: CHO-K1 cells stably expressing recombinant receptor; antagonism of isoproterenol at EC90; cAMP readout. The method in brief:
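CHO-K1 cells stably expressing the recombinant receptor were preincubated with compound (10-point, 5-fold dilutions; top final typically 10 or 100 μM) in PBS with 1 mM IBMX, then stimulated with isoproterenol at its EC90 for 1 h at room temperature. cAMP was read by HTRF against an on-plate standard curve.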
As to `CCn1cc(S(=O)(=O)N2CCC3(CC2)C[C@@H](NC[C@H](O)COc2cccc(S(=O)(=O)C(F)(F)CO)c2)CO3)c(=O)c2ccccc21` [Compound 298, 3-((R)-3-((S)-3-(3-(1,1-difluoro-2-hydroxyethylsulfonyl)phenoxy)-2-hydroxypropylamino)-1-oxa-8-azaspiro[4.5]decan-8-ylsulfonyl)-1-ethylquinolin-4(1H)-one], the IC50 is 82.5 nM.

For `NCCc1ccc(-c2cccc(S(=O)(=O)N3CCC4(CC3)C[C@@H](NC[C@H](O)COc3cccc(S(=O)(=O)C(F)(F)CO)c3)CO4)c2)cc1` [Compound 213, (S)-1-((R)-8-(4′-(2-aminoethyl)biphenyl-3-ylsulfonyl)-1-oxa-8-azaspiro[4.5]decan-3-ylamino)-3-(3-(1,1-difluoro-2-hydroxyethylsulfonyl)phenoxy)propan-2-ol], the IC50 turned out to be 18.6 nM.

`CS(=O)(=O)c1cccc(OC[C@@H](O)CNC2COC3(CCN(S(=O)(=O)c4cccc(-c5ccc(CN)cc5)c4)CC3)C2)c1` (stereo partly drawn) [Compound 41, (2S)-1-(8-(4′-(aminomethyl)biphenyl-3-ylsulfonyl)-1-oxa-8-azaspiro[4.5]decan-3-ylamino)-3-(3-(methylsulfonyl)phenoxy)propan-2-ol]: the IC50 amounted to 13.7 nM.

As for `CN1CCOc2ncc(S(=O)(=O)N3CCC4(CC3)C[C@@H](NC[C@H](O)COc3cccc(S(=O)(=O)CCO)c3)CO4)cc21` [Compound 151, (S)-1-(3-(2-hydroxyethylsulfonyl)phenoxy)-3-((R)-8-(1-methyl-2,3-dihydro-1H-pyrido[2,3-b][1,4]oxazin-7-ylsulfonyl)-1-oxa-8-azaspiro[4.5]decan-3-ylamino)propan-2-ol], the IC50 is 40.8 nM.

Consider `CC(C)S(=O)(=O)c1cccc(OC[C@@H](O)CN[C@H]2COC3(CCN(S(=O)(=O)c4ccc5ncccc5c4)CC3)C2)c1` [Compound 113, (S)-1-(3-(isopropylsulfonyl)phenoxy)-3-((R)-8-(quinolin-6-ylsulfonyl)-1-oxa-8-azaspiro[4.5]decan-3-ylamino)propan-2-ol], for which the IC50 was 26.8 nM.

Consider `Cc1c(-c2ccc(CN)cc2)cccc1S(=O)(=O)N1CCC2(CC1)C[C@@H](NC[C@H](O)COc1cccc(S(=O)(=O)C3(CO)CC3)c1)CO2` [Compound 203, (S)-1-((R)-8-(4′-(aminomethyl)-2-methylbiphenyl-3-ylsulfonyl)-1-oxa-8-azaspiro[4.5]decan-3-ylamino)-3-(3-(1-(hydroxymethyl)cyclopropylsulfonyl)phenoxy)propan-2-ol], for which the IC50 turned out to be 1110 nM.

As for `O=S(=O)(c1cccc(OC[C@@H](O)CN[C@H]2COC3(CCN(S(=O)(=O)c4cnc5c(c4)NCCO5)CC3)C2)c1)C1CC1` [Compound 303, (S)-1-(3-(cyclopropylsulfonyl)phenoxy)-3-((R)-8-(2,3-dihydro-1H-pyrido[2,3-b][1,4]oxazin-7-ylsulfonyl)-1-oxa-8-azaspiro[4.5]decan-3-ylamino)propan-2-ol], the IC50 stood at 17.1 nM.

Take `C[C@H]1CN(C)c2cc(S(=O)(=O)N3CCC4(CC3)C[C@@H](NC[C@H](O)COc3cccc(S(=O)(=O)CC(N)=O)c3)CO4)cnc2O1` [Compound 278, 2-(3-((S)-3-((R)-8-((S)-1,3-dimethyl-2,3-dihydro-1H-pyrido[2,3-b][1,4]oxazin-7-ylsulfonyl)-1-oxa-8-azaspiro[4.5]decan-3-ylamino)-2-hydroxypropoxy)phenylsulfonyl)acetamide]: the IC50 was 586 nM.

As for `NCCNCc1ccc(-c2cccc(S(=O)(=O)N3CCC4(CC3)C[C@@H](NC[C@H](O)COc3cccc(S(=O)(=O)C5(CO)CC5)c3)CO4)c2)cc1` [Compound 270, (S)-1-((R)-8-(4′-((2-aminoethylamino)methyl)biphenyl-3-ylsulfonyl)-1-oxa-8-azaspiro[4.5]decan-3-ylamino)-3-(3-(1-(hydroxymethyl)cyclopropylsulfonyl)phenoxy)propan-2-ol], the IC50 was determined as 92.3 nM.

One may read the IC50 as the concentration at which inhibition is half-maximal.
